Test system: not listed separately
Test: in vitro
Conditions: human
With O=C(CCN1CCOCC1)NN(c1ccccc1)c1ccccc1 [Compound 21, 3-Morpholino-N′,N′-diphenylpropanehydrazide] the CC50 was > 10 µM. In the case of O=C(CNCCN1CCOCC1)NN(c1ccccc1)c1ccccc1 [Compound 22, 2-((2-Morpholinoethyl)amino)-N′,N′-diphenylacetohydrazide], the CC50 was > 10 µM. In the case of O=C(CCNCCN1CCOCC1)NN(c1ccccc1)c1ccccc1 [Compound 23, 3-((2-Morpholinoethyl)amino)-N′,N′-diphenylpropanehydrazide], the CC50 was > 10 µM. In the case of O=C(CNCCc1ccccc1)NN(c1ccccc1)c1ccccc1 [Compound 24, 2-(Phenethylamino)-N′,N′-diphenylacetohydrazide], the CC50 was > 10 µM. For O=C(CCNCCc1ccccc1)NN(c1ccccc1)c1ccccc1 [Compound 25, 3-(Phenethylamino)-N′,N′-diphenylpropanehydrazide], the CC50 was > 10 µM. In the case of CCOC(=O)CCCCCCNCC(=O)NN(c1ccccc1)c1ccccc1 [Compound 26, Ethyl 7-((2-(2,2-Diphenylhydrazinyl)-2-oxoethyl)amino)heptanoate], the CC50 was > 10 µM. With CCOC(=O)CCCCCCNCCC(=O)NN(c1ccccc1)c1ccccc1 [Compound 27, Ethyl 7-((3-(2,2-Diphenylhydrazinyl)-3-oxopropyl)amino)heptanoate] the CC50 was > 10 µM. With CCCCCC(=O)NN(c1ccccc1)c1ccccc1 [Compound 28, N′,N′-Diphenylhexanehydrazide] the CC50 was > 10 µM. With O=C(Cc1ccc(Br)cc1)NN(c1ccccc1)c1ccccc1 [Compound 29, 2-(4-Bromophenyl)-N′,N′-diphenylacetohydrazide] the CC50 was > 10 µM. For CCOC(=O)C1CCN(CC(=O)NN(Cc2ccccc2)c2ccccc2)CC1 [Compound 35, Ethyl 1-(2-(2-Benzyl-2-phenylhydrazineyl)-2-oxoethyl)piperidine-4-carboxylate], the CC50 was > 100 µM. With COC(=O)C1CCN(CC(=O)NN(Cc2ccccc2)c2ccccc2)CC1 [Compound 36, Methyl 1-(2-(2-Benzyl-2-phenylhydrazineyl)-2-oxoethyl)piperidine-4-carboxylate] the CC50 was > 100 µM. With CCOC(=O)CCCCCCNCC(=O)NN(Cc1ccccc1)c1ccccc1 [Compound 37, Ethyl 7-((2-(2-Benzyl-2-phenylhydrazineyl)-2-oxoethyl)amino)heptanoate] the CC50 was > 100 µM. In the case of CCCCCC(=O)NN(Cc1ccccc1)c1ccccc1 [Compound 38, N′-Benzyl-N′-phenylhexanehydrazide], the CC50 was > 100 µM. In the case of O=C(Cc1ccc(Br)cc1)NN(Cc1ccccc1)c1ccccc1 [Compound 39, N′-Benzyl-2-(4-bromophenyl)-N′-phenylacetohydrazide], the CC50 was > 100 µM. Compound O=C(CNCCC1CCN(Cc2ccccc2)CC1)N(c1ccccc1)c1ccccc1 [Compound 40, 2-((2-(1-Benzylpiperidin-4-yl)ethyl)amino)-N,N-diphenylacetamide] has a CC50 at 24 h of 100 µM. With CCOC(=O)C1CCN(CC(=O)N(c2ccccc2)c2ccccc2)CC1 [Compound 41, Ethyl 1-(2-(Diphenylamino)-2-oxoethyl)piperidine-4-carboxylate] the CC50 was > 100 µM. For O=C(CNCCc1ccccc1)N(c1ccccc1)c1ccccc1 [Compound 42, 2-(Phenethylamino)-N,N-diphenylacetamide], the CC50 was > 100 µM. With CCOC(=O)CCCCCCNCC(=O)N(c1ccccc1)c1ccccc1 [Compound 43, Ethyl 7-((2-(Diphenylamino)-2-oxoethyl)amino)heptanoate] the CC50 was > 100 µM. For CCCCCC(=O)N(c1ccccc1)c1ccccc1 [Compound 44, N,N-Diphenylhexanamide], the CC50 was > 100 µM. For O=C(Cc1ccc(Br)cc1)N(c1ccccc1)c1ccccc1 [Compound 45, 2-(4-Bromophenyl)-N,N-diphenylacetamide], the CC50 was > 100 µM.

Test system: EBOV-GP-Pseudotype Virus (pEBOV)
Test: microbe, parasite or virus in culture
Conditions: Zaire ebolavirus, M-HeLa, 48 h, read-out: %inh@10 μM (pEBOV)
O=C(CCN1CCOCC1)NN(c1ccccc1)c1ccccc1 [Compound 21, 3-Morpholino-N′,N′-diphenylpropanehydrazide] gave an inhibition at 10 µM of 29%. In the case of O=C(CNCCN1CCOCC1)NN(c1ccccc1)c1ccccc1 [Compound 22, 2-((2-Morpholinoethyl)amino)-N′,N′-diphenylacetohydrazide], the inhibition at 10 µM was 27%. Work on O=C(CCNCCN1CCOCC1)NN(c1ccccc1)c1ccccc1 [Compound 23, 3-((2-Morpholinoethyl)amino)-N′,N′-diphenylpropanehydrazide] yielded an inhibition at 10 µM of 42%. With O=C(CNCCc1ccccc1)NN(c1ccccc1)c1ccccc1 [Compound 24, 2-(Phenethylamino)-N′,N′-diphenylacetohydrazide] the inhibition at 10 µM was 10%. For O=C(CCNCCc1ccccc1)NN(c1ccccc1)c1ccccc1 [Compound 25, 3-(Phenethylamino)-N′,N′-diphenylpropanehydrazide], the inhibition at 10 µM was 61%. CCOC(=O)CCCCCCNCC(=O)NN(c1ccccc1)c1ccccc1 [Compound 26, Ethyl 7-((2-(2,2-Diphenylhydrazinyl)-2-oxoethyl)amino)heptanoate] showed an inhibition at 10 µM of 51%. In the case of CCOC(=O)CCCCCCNCCC(=O)NN(c1ccccc1)c1ccccc1 [Compound 27, Ethyl 7-((3-(2,2-Diphenylhydrazinyl)-3-oxopropyl)amino)heptanoate], the inhibition at 10 µM was 53%. CCCCCC(=O)NN(c1ccccc1)c1ccccc1 [Compound 28, N′,N′-Diphenylhexanehydrazide] showed an inhibition at 10 µM of 67%. In the case of O=C(Cc1ccc(Br)cc1)NN(c1ccccc1)c1ccccc1 [Compound 29, 2-(4-Bromophenyl)-N′,N′-diphenylacetohydrazide], the inhibition at 10 µM was 73%. Work on CCOC(=O)C1CCN(CC(=O)NN(Cc2ccccc2)c2ccccc2)CC1 [Compound 35, Ethyl 1-(2-(2-Benzyl-2-phenylhydrazineyl)-2-oxoethyl)piperidine-4-carboxylate] yielded an inhibition at 10 µM of 15%. Compound COC(=O)C1CCN(CC(=O)NN(Cc2ccccc2)c2ccccc2)CC1 [Compound 36, Methyl 1-(2-(2-Benzyl-2-phenylhydrazineyl)-2-oxoethyl)piperidine-4-carboxylate] has an inhibition at 10 µM of 24%. CCOC(=O)CCCCCCNCC(=O)NN(Cc1ccccc1)c1ccccc1 [Compound 37, Ethyl 7-((2-(2-Benzyl-2-phenylhydrazineyl)-2-oxoethyl)amino)heptanoate] gave an inhibition at 10 µM of 30%. CCCCCC(=O)NN(Cc1ccccc1)c1ccccc1 [Compound 38, N′-Benzyl-N′-phenylhexanehydrazide] gave an inhibition at 10 µM of 18%. In the case of O=C(Cc1ccc(Br)cc1)NN(Cc1ccccc1)c1ccccc1 [Compound 39, N′-Benzyl-2-(4-bromophenyl)-N′-phenylacetohydrazide], the inhibition at 10 µM was 32%. O=C(CNCCC1CCN(Cc2ccccc2)CC1)N(c1ccccc1)c1ccccc1 [Compound 40, 2-((2-(1-Benzylpiperidin-4-yl)ethyl)amino)-N,N-diphenylacetamide] gave an inhibition at 10 µM of 8%. With CCOC(=O)C1CCN(CC(=O)N(c2ccccc2)c2ccccc2)CC1 [Compound 41, Ethyl 1-(2-(Diphenylamino)-2-oxoethyl)piperidine-4-carboxylate] the inhibition at 10 µM was 40%. With O=C(CNCCc1ccccc1)N(c1ccccc1)c1ccccc1 [Compound 42, 2-(Phenethylamino)-N,N-diphenylacetamide] the inhibition at 10 µM was 38%. CCOC(=O)CCCCCCNCC(=O)N(c1ccccc1)c1ccccc1 [Compound 43, Ethyl 7-((2-(Diphenylamino)-2-oxoethyl)amino)heptanoate] gave an inhibition at 10 µM of 35%. In the case of CCCCCC(=O)N(c1ccccc1)c1ccccc1 [Compound 44, N,N-Diphenylhexanamide], the inhibition at 10 µM was 32%. With O=C(Cc1ccc(Br)cc1)N(c1ccccc1)c1ccccc1 [Compound 45, 2-(4-Bromophenyl)-N,N-diphenylacetamide] the inhibition at 10 µM was 36%.
